The source of these data is DBAASP.

Holding throughout (assay): ≥ marks a high value that may be exact or a test limit, other limits are often not marked, values filed in µg/mL are converted to µM
The test system of test [1] is Aspergillus brasiliensis ATCC 16404.
Test [2] concerns Staphylococcus aureus ATCC 29213.
Test [3] deals with Pseudomonas aeruginosa ATCC 27853.
Test [4] relates to Candida albicans ATCC 10231.
Test [5] has as its system Escherichia coli ATCC 25922.
Test [6] deals with Enterococcus faecalis ATCC 29212.
Test [7] deals with Streptococcus sanguinis.
Test [8] deals with Staphylococcus aureus.
Test [9] has as its system Bacillus subtilis VKM B-501.
For test [10], the system named is Escherichia coli C600.
Test [11] has as its system Staphylococcus aureus 209P.
Test [12] relates to Bacillus cereus ATCC 10876.
The test system of test [13] is Salmonella enterica subsp. enterica serovar Typhimurium ATCC 14028.
The subject of test [14] is Streptococcus iniae KCTC 3657.
For test [15], the system named is Escherichia coli BW25113 ΔsbmA.
Test [16] relates to Acinetobacter baumannii ATCC 19606.
Test [17] concerns Klebsiella pneumoniae ATCC 700603.
In test [18] the test system is Staphylococcus aureus ATCC 25923.
For test [19], the system named is Escherichia coli BW25113.
Test [20] has as its system Staphylococcus pseudintermedius.
The test system of test [21] is Pseudomonas aeruginosa.
Test [22] has as its system Pseudomonas aeruginosa CCARM 2002.
Test [23] has as its system Escherichia coli CCARM 1229.
Test [24] has as its system Salmonella typhimurium KCTC 1926.
Test [25] has as its system Salmonella typhimurium CCARM 8007.
The subject of test [26] is Acinetobacter baumannii CCARM 12035.
In test [27] the test system is Staphylococcus aureus KCTC 1621.
The subject of test [28] is Staphylococcus aureus CCARM 3126.
Test [29] deals with Bacillus subtilis KCTC 3068.
The subject of test [30] is Pseudomonas aeruginosa KCTC 2004.
Test [31] has as its system Staphylococcus epidermidis KCTC 1917.
For test [32], the system named is Acinetobacter baumannii KCTC 2508.
Test [33] concerns Escherichia coli KCTC 1682.

Values after ≈ are worked out from the molar mass of the structure shown.

Turning to `CC[C@H](C)[C@H](NC(=O)[C@H](CCCCN)NC(=O)CNC(=O)[C@@H]1CCCN1C(=O)[C@H](Cc1cnc[nH]1)NC(=O)[C@H](CC(C)C)NC(=O)[C@H](CC(C)C)NC(=O)[C@H](Cc1ccc(O)cc1)NC(=O)[C@H](CO)NC(=O)CNC(=O)[C@H](Cc1ccc(O)cc1)NC(=O)[C@H](CC(C)C)NC(=O)[C@H](CO)NC(=O)[C@@H](N)CS)C(=O)N[C@@H](CO)C(=O)N[C@@H](Cc1ccc(O)cc1)C(=O)N[C@@H](CO)C(=O)N[C@@H](CC(C)C)C(=O)N[C@@H](Cc1cnc[nH]1)C(=O)N[C@@H](CS)C(=O)N[C@@H](CO)C(=O)N[C@@H](CCCN=C(N)N)C(=O)O` [CSLYGSYLLHPGKISYSLHCSR], the MIC is no less than 64 µM in test [1]; 32 µM (≈ 79.5 µg/mL) in test [2]; 64 µM (≈ 159 µg/mL) in test [3]; 32 µM (≈ 79.5 µg/mL) in test [4]; 16 µM (≈ 39.8 µg/mL) in test [5]; 16 µM (≈ 39.8 µg/mL) in test [6].

Regarding `CC[C@H](C)[C@H](NC(=O)[C@H](Cc1ccccc1)NC(=O)[C@@H](N)Cc1ccccc1)C(=O)N[C@@H](Cc1ccccc1)C(=O)N[C@@H](Cc1ccccc1)C(=O)N[C@@H](Cc1ccccc1)C(N)=O` [FFIFFF], the values for the MIC in [7] and in test [8] were no less than 32.6 µM and 14.8 µM (≈ 12.8 µg/mL), respectively.

For the molecule `CC[C@H](C)[C@H](NC(=O)[C@H](C)NC(=O)[C@H](CCCCN)NC(=O)[C@H](CCCN=C(N)N)NC(=O)CNC(=O)[C@H](Cc1ccccc1)NC(=O)[C@H](CCCCN)NC(=O)[C@H](CCCCN)NC(=O)[C@@H](NC(=O)[C@H](CC(C)C)NC(=O)[C@H](CCCCN)NC(=O)CN)[C@@H](C)CC)C(=O)N[C@@H](CO)C(=O)N[C@@H](Cc1ccc(O)cc1)C(=O)N[C@@H](C)C(=O)N[C@H](C(=O)N[C@@H](CCCCN)C(=O)N[C@@H](CCCCN)C(=O)N[C@@H](C)C(=O)N[C@@H](CCCN=C(N)N)C(=O)NCC(=O)N[C@@H](CCCCN)C(=O)N[C@@H](Cc1cnc[nH]1)C(=O)O)C(C)C` [GKLIKKFGRKAISYAVKKARGKH], the minimum inhibitory concentration (MIC) in test [9] is 0.7 µM (≈ 1.81 µg/mL); in test [10] it was 6 µM (≈ 15.5 µg/mL); in test [11], no less than 36 µM.

Regarding `CSCC[C@H](NC(=O)[C@H](Cc1ccccc1)NC(=O)[C@H](CCCCN)NC(=O)[C@H](CCCN=C(N)N)NC(=O)[C@H](Cc1ccccc1)NC(=O)CNC(=O)[C@H](CC(N)=O)NC(=O)[C@H](CCCN=C(N)N)NC(=O)[C@H](CCCCN)NC(=O)[C@@H](NC(=O)[C@H](CCCN=C(N)N)NC(=O)[C@@H](N)Cc1cnc[nH]1)C(C)C)C(=O)N[C@@H](CCCN=C(N)N)C(=O)N[C@@H](CCCN=C(N)N)C(=O)N[C@@H](CC(C)C)C(=O)N[C@@H](CCCCN)C(=O)N[C@@H](CCCCN)C(=O)N[C@@H](Cc1ccccc1)C(=O)N[C@@H](Cc1ccccc1)C(=O)N[C@@H](C)C(=O)NCC(=O)NCC(=O)O` [HRVKRNGFRKFMRRLKKFFAGG], the MIC in test [12] is 11.7 µM (≈ 32 µg/mL); in [13], 0.731 µM (≈ 2 µg/mL); in [2], greater than 46.8 µM; in test [14], 11.7 µM (≈ 32 µg/mL); in test [3] it was 2.92 µM (≈ 8 µg/mL); in [5], 1.1 µM (≈ 3 µg/mL).

On to `CC[C@H](C)[C@H](NC(=O)[C@@H]1CCCN1C(=O)[C@@H]1CCCN1C(=O)[C@H](CCCN=C(N)N)NC(=O)[C@H](Cc1ccccc1)NC(=O)[C@@H]1CCCN1C(=O)[C@@H]1CCCN1C(=O)[C@H](Cc1ccc(O)cc1)NC(=O)[C@H](Cc1ccccc1)NC(=O)[C@@H]1CCCN1C(=O)[C@@H]1CCCN1C(=O)[C@H](CCCN=C(N)N)NC(=O)[C@@H](NC(=O)[C@@H]1CCCN1C(=O)[C@@H]1CCCN1C(=O)[C@H](CCCN=C(N)N)NC(=O)[C@H](CCCN=C(N)N)NC(=O)[C@@H](NC(=O)[C@@H]1CCCN1C(=O)[C@@H]1CCCN1C(=O)[C@H](CCCN=C(N)N)NC(=O)[C@H](Cc1ccccc1)NC(=O)[C@@H](N)CCCN=C(N)N)[C@@H](C)CC)[C@@H](C)CC)C(=O)O` [RFRPPIRRPPIRPPFYPPFRPPI], for which the MIC in test [13] was 4 µM (≈ 11.5 µg/mL); in test [15] it was no less than 32 µM; in test [3] it was 32 µM (≈ 91.9 µg/mL); in [16] it was 1 µM (≈ 2.87 µg/mL); in test [17], 32 µM (≈ 91.9 µg/mL); in test [18] it was greater than 64 µM. Also, the MIC in test [5] and in [19] was 2 µM (≈ 5.74 µg/mL) throughout.

Consider `CC(=O)N[C@@H](CCCN=C(N)N)C(=O)N[C@@H](CCCCN)C(=O)N[C@@H](Cc1ccccc1)C(=O)N[C@@H](CC(C)C)C(=O)N[C@@H](CCCN=C(N)N)C(=O)N[C@@H](CCCN=C(N)N)C(=O)N[C@@H](CCCN=C(N)N)C(=O)NCC(=O)N[C@@H](CCC(=O)O)C(=O)N[C@H](C(=O)N[C@@H](C)C(=O)N[C@@H](Cc1cnc[nH]1)C(=O)N[C@@H](Cc1ccccc1)C(=O)N[C@@H](CO)C(=O)N[C@@H](CCC(N)=O)C(=O)N[C@@H](CCCCN)C(=O)N[C@@H](CO)C(=O)N[C@@H](CC(C)C)C(=O)NCC(=O)N[C@@H](CC(C)C)C(=O)N[C@@H](Cc1ccc(O)cc1)C(=O)N[C@@H](CS)C(=O)N[C@@H](Cc1c[nH]c2ccccc12)C(=O)N[C@@H](Cc1c[nH]c2ccccc12)C(=O)N[C@@H](Cc1c[nH]c2ccccc12)C(N)=O)C(C)C` [RKFLRRRGEVAHFSQKSLGLYCWWW], for which the MIC is 19.9 µM (≈ 64.8 µg/mL) in test [2], 19.9 µM (≈ 64.8 µg/mL) in test [3], no less than 39.9 µM in test [20] and 39.9 µM (≈ 130 µg/mL) in test [21].

In the case of `CC[C@H](C)[C@H](NC(=O)[C@H](CCCCN)NC(=O)[C@H](Cc1c[nH]c2ccccc12)NC(=O)[C@@H](N)CCCN=C(N)N)C(=O)N[C@@H](Cc1ccccc1)C(=O)N[C@@H](CCCCN)C(=O)N[C@@H](CCCCN)C(=O)N[C@H](C(=O)N[C@H](C(=O)N[C@@H](CCCCN)C(=O)N[C@@H](CCCCN)C(=O)N[C@@H](Cc1c[nH]c2ccccc12)C(N)=O)C(C)C)C(C)C` [RWKIFKKVVKKW], the MIC in [22] was found to be 8 µM (≈ 13.2 µg/mL); in [23], 8 µM (≈ 13.2 µg/mL); in test [24] it was 8 µM (≈ 13.2 µg/mL); in test [25], 8 µM (≈ 13.2 µg/mL); in test [26], 4 µM (≈ 6.58 µg/mL); in [27], 4 µM (≈ 6.58 µg/mL). Further, the MIC came out at 8 µM (≈ 13.2 µg/mL) in [28]; 8 µM (≈ 13.2 µg/mL) in test [29]; 4 µM (≈ 6.58 µg/mL) in [30]; 8 µM (≈ 13.2 µg/mL) in test [31]; 4 µM (≈ 6.58 µg/mL) in test [32]; 4 µM (≈ 6.58 µg/mL) in test [33].
